Experimental data from PubChem BioAssay (NCI).
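Dose response: 5 concentrations. Exposure: 48 h. Format: 96-well plates. Endpoint: linear interpolation; highest concentration if not reached. GI50 marks 50% less growth. TGI: concentration producing complete growth inhibition.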 *1 amine or outer side, *2 acyl side, *3 side chain or, on linkers, in order; H or OH if unused. Where a SMILES comes first, the peptide text is derived from it. Bridges are numbered along the chain shown (N, C = ends). [ ]: non-standard residue; d: D form. The star is where a group is joined. ξ: configuration not given here. Phe(3,5-F2) = N[C@@H](Cc1cc(F)cc(F)c1)C(=O)O; ξThr(3S) = C[C@H](O[*:3])C(N[*:1])C(=O)[*:2]; X25 = C[C@H]1OCCN([*:1])[C@@H]1C(=O)[*:2]; Pro(4R-Me) = C[C@H]1CN[C@H](C(=O)O)C1; X24 = O=S(=O)(F)Oc1ccc(N*)cc1; CO = O=C([*:1])[*:2]

Columns and labels:
Assay in all cases: inhibition of tumour cell growth, NCI panel, 48 h
786-0 renal = tested on: 786-0 renal
A498 renal = tested on: A498 renal
A549 NSCLC = tested on: A549 NSCLC
ACHN renal = tested on: ACHN renal
BT-549 breast = tested on: BT-549 breast
CAKI-1 renal = tested on: CAKI-1 renal
CCRF-CEM leukemia = tested on: CCRF-CEM leukemia
COLO 205 colon = tested on: COLO 205 colon
DU-145 prostate = tested on: DU-145 prostate
EKVX NSCLC = tested on: EKVX NSCLC
HCC-2998 colon = tested on: HCC-2998 colon
HCT-116 colon = tested on: HCT-116 colon
HCT-15 colon = tested on: HCT-15 colon
HL-60(TB) leukemia = tested on: HL-60(TB) leukemia
HOP-62 NSCLC = tested on: HOP-62 NSCLC
HOP-92 NSCLC = tested on: HOP-92 NSCLC
HS 578T breast = tested on: HS 578T breast
HT29 colon = tested on: HT29 colon
IGROV1 ovarian = tested on: IGROV1 ovarian
K-562 leukemia = tested on: K-562 leukemia
KM12 colon = tested on: KM12 colon
LOX IMVI melanoma = tested on: LOX IMVI melanoma
M14 melanoma = tested on: M14 melanoma
MALME-3M melanoma = tested on: MALME-3M melanoma
MCF7 breast = tested on: MCF7 breast
MDA-MB-231 breast = tested on: MDA-MB-231 breast
MDA-MB-435 = tested on: MDA-MB-435
MOLT-4 leukemia = tested on: MOLT-4 leukemia
NCI-H226 lung = tested on: NCI-H226 lung
NCI-H460 lung = tested on: NCI-H460 lung
NCI-H522 lung = tested on: NCI-H522 lung
NCI/ADR-RES ovarian = tested on: NCI/ADR-RES ovarian
OVCAR-3 ovarian = tested on: OVCAR-3 ovarian
OVCAR-4 ovarian = tested on: OVCAR-4 ovarian
OVCAR-5 ovarian = tested on: OVCAR-5 ovarian
OVCAR-8 ovarian = tested on: OVCAR-8 ovarian
PC-3 prostate = tested on: PC-3 prostate
RPMI-8226 leukemia = tested on: RPMI-8226 leukemia
RXF 393 renal = tested on: RXF 393 renal
SF-268 CNS = tested on: SF-268 CNS
SF-295 CNS = tested on: SF-295 CNS
SF-539 CNS = tested on: SF-539 CNS
SK-MEL-2 melanoma = tested on: SK-MEL-2 melanoma
SK-MEL-28 melanoma = tested on: SK-MEL-28 melanoma
SK-MEL-5 melanoma = tested on: SK-MEL-5 melanoma
SK-OV-3 ovarian = tested on: SK-OV-3 ovarian
SN12C renal = tested on: SN12C renal
SNB-19 CNS = tested on: SNB-19 CNS
SNB-75 CNS = tested on: SNB-75 CNS
SR leukemia = tested on: SR leukemia
SW-620 colon = tested on: SW-620 colon
T-47D breast = tested on: T-47D breast
TK-10 renal = tested on: TK-10 renal
U251 CNS = tested on: U251 CNS
UACC-257 melanoma = tested on: UACC-257 melanoma
UACC-62 melanoma = tested on: UACC-62 melanoma
UO-31 renal = tested on: UO-31 renal

`C[C@@H]1C[C@H]2C(=O)O[C@@H](C)C(NC(=O)[C@H](Cc3cc(F)cc(F)c3)NC(=O)Nc3ccc(OS(=O)(=O)F)cc3)C(=O)N3CCC[C@H]3C(=O)N3CCO[C@H](C)[C@H]3C(=O)N[C@@H](CO)C(=O)N2C1` (stereo partly drawn) ({X24-CO}-[Phe(3,5-F2)][ξThr(3S)]P[X25]S[Pro(4R-Me)]; ester 2-C) showed a GI50 (786-0 renal) of 4.54 µM, a TGI (786-0 renal) greater than 100 µM and a GI50 (A498 renal) of 3.05 µM. It also gave a TGI (A498 renal) of 69.4 µM, a GI50 (A549 NSCLC) of 4.63 µM and a TGI (A549 NSCLC) greater than 100 µM. For the same compound, the GI50 (ACHN renal) was 10.1 µM, the TGI (ACHN renal) was 35.3 µM and the GI50 (BT-549 breast) was 853 nM. For the same compound, the TGI (BT-549 breast) was 24.8 µM, the GI50 (CAKI-1 renal) was 2790 nM and the TGI (CAKI-1 renal) was 34.8 µM. It also gave a GI50 (CCRF-CEM leukemia) of 591 nM, a TGI (CCRF-CEM leukemia) greater than 100 µM and a GI50 (COLO 205 colon) of 683 nM. The TGI (COLO 205 colon) was 3.17 µM, the GI50 (DU-145 prostate) was 3.48 µM and the TGI (DU-145 prostate) was greater than 100 µM. For the same compound, the GI50 (EKVX NSCLC) was 3.2 µM, the TGI (EKVX NSCLC) was greater than 100 µM and the GI50 (HCC-2998 colon) was 1330 nM. For the same compound, the TGI (HCC-2998 colon) was 18.7 µM, the GI50 (HCT-116 colon) was 452 nM and the TGI (HCT-116 colon) was 14.3 µM. It also gave a GI50 (HCT-15 colon) of 15.3 µM, a TGI (HCT-15 colon) greater than 100 µM and a GI50 (HL-60(TB) leukemia) of 335 nM. The TGI (HL-60(TB) leukemia) was 3.18 µM, the GI50 (HOP-62 NSCLC) was 2810 nM and the TGI (HOP-62 NSCLC) was greater than 100 µM. The GI50 (HOP-92 NSCLC) was 927 nM, the TGI (HOP-92 NSCLC) was 7.57 µM and the GI50 (HS 578T breast) was 916 nM. The TGI (HS 578T breast) was greater than 100 µM, the GI50 (HT29 colon) was 2690 nM and the TGI (HT29 colon) was 18.6 µM. It also gave a GI50 (IGROV1 ovarian) of 2670 nM, a TGI (IGROV1 ovarian) greater than 100 µM and a GI50 (K-562 leukemia) of 482 nM. It also gave a TGI (K-562 leukemia) greater than 100 µM, a GI50 (KM12 colon) of 4.39 µM and a TGI (KM12 colon) greater than 100 µM. It also gave a GI50 (LOX IMVI melanoma) of 1410 nM, a TGI (LOX IMVI melanoma) greater than 100 µM and a GI50 (M14 melanoma) of 2760 nM. It also gave a TGI (M14 melanoma) of 22.4 µM, a GI50 (MALME-3M melanoma) of 3.23 µM and a TGI (MALME-3M melanoma) of 45.2 µM. The GI50 (MCF7 breast) was 454 nM, the TGI (MCF7 breast) was 64.7 µM and the GI50 (MDA-MB-231 breast) was 642 nM. For the same compound, the TGI (MDA-MB-231 breast) was 20.4 µM, the GI50 (MDA-MB-435) was 589 nM and the TGI (MDA-MB-435) was 62 µM. It also gave a GI50 (MOLT-4 leukemia) of 2120 nM, a TGI (MOLT-4 leukemia) of 29.6 µM and a GI50 (NCI-H226 lung) of 2300 nM. For the same compound, the TGI (NCI-H226 lung) was 9.41 µM, the GI50 (NCI-H460 lung) was 2390 nM and the TGI (NCI-H460 lung) was greater than 100 µM. For the same compound, the GI50 (NCI-H522 lung) was 497 nM, the TGI (NCI-H522 lung) was 9.3 µM and the GI50 (NCI/ADR-RES ovarian) was greater than 100 µM. It also gave a TGI (NCI/ADR-RES ovarian) greater than 100 µM, a GI50 (OVCAR-3 ovarian) of 622 nM and a TGI (OVCAR-3 ovarian) of 23.7 µM. It also gave a GI50 (OVCAR-4 ovarian) of 2380 nM, a TGI (OVCAR-4 ovarian) greater than 100 µM and a GI50 (OVCAR-5 ovarian) of 3.58 µM. For the same compound, the TGI (OVCAR-5 ovarian) was 26.8 µM, the GI50 (OVCAR-8 ovarian) was 2660 nM and the TGI (OVCAR-8 ovarian) was greater than 100 µM. For the same compound, the GI50 (PC-3 prostate) was 1010 nM, the TGI (PC-3 prostate) was greater than 100 µM and the GI50 (RPMI-8226 leukemia) was 346 nM. The TGI (RPMI-8226 leukemia) was 2360 nM, the GI50 (RXF 393 renal) was 3.16 µM and the TGI (RXF 393 renal) was 37.2 µM. It also gave a GI50 (SF-268 CNS) of 1330 nM, a TGI (SF-268 CNS) greater than 100 µM and a GI50 (SF-295 CNS) of 3.27 µM. The TGI (SF-295 CNS) was 13.1 µM, the GI50 (SF-539 CNS) was 2440 nM and the TGI (SF-539 CNS) was greater than 100 µM. The GI50 (SK-MEL-2 melanoma) was 419 nM, the TGI (SK-MEL-2 melanoma) was 3.59 µM and the GI50 (SK-MEL-28 melanoma) was 2300 nM. It also gave a TGI (SK-MEL-28 melanoma) greater than 100 µM, a GI50 (SK-MEL-5 melanoma) of 3.09 µM and a TGI (SK-MEL-5 melanoma) of 11.6 µM. It also gave a GI50 (SK-OV-3 ovarian) of 2490 nM, a TGI (SK-OV-3 ovarian) of 8.45 µM and a GI50 (SN12C renal) of 1360 nM. The TGI (SN12C renal) was greater than 100 µM, the GI50 (SNB-19 CNS) was 598 nM and the TGI (SNB-19 CNS) was greater than 100 µM. The GI50 (SNB-75 CNS) was 530 nM, the TGI (SNB-75 CNS) was 7.46 µM and the GI50 (SR leukemia) was 1640 nM. The TGI (SR leukemia) was 29.1 µM, the GI50 (SW-620 colon) was 1610 nM and the TGI (SW-620 colon) was greater than 100 µM. It also gave a GI50 (T-47D breast) of 633 nM, a TGI (T-47D breast) greater than 100 µM and a GI50 (TK-10 renal) of 6.22 µM. It also gave a TGI (TK-10 renal) greater than 100 µM, a GI50 (U251 CNS) of 769 nM and a TGI (U251 CNS) greater than 100 µM. The GI50 (UACC-257 melanoma) was 1510 nM, the TGI (UACC-257 melanoma) was 8.97 µM and the GI50 (UACC-62 melanoma) was 1750 nM. For the same compound, the TGI (UACC-62 melanoma) was 64.7 µM, the GI50 (UO-31 renal) was 23.7 µM and the TGI (UO-31 renal) was greater than 100 µM.
